# From patent publication US20140045823A1 (Neurocrine Biosciences, Inc., priority 2012, published 2014)
# Molecular target: T1, human GPR119 (Homo sapiens, UniProt Q8TDV5)
# T1 construct: expression vector for human GPR119 cDNA (Acc. No. NP_848566); expressed in transfected cells; Min-6/hGPR119
# T1 sequence (Q8TDV5 1-335): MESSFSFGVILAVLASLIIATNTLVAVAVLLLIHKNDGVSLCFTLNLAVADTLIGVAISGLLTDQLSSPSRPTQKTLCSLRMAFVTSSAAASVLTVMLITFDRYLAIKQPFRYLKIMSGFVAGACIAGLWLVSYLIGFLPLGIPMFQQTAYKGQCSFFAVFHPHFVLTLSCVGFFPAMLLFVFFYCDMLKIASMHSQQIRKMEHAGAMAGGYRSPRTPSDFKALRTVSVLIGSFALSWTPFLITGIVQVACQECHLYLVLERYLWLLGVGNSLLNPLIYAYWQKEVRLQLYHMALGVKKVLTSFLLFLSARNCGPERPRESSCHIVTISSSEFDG
# Experiment: AlphaScreen cAMP assay in MIN6 cells stably transfected with human GPR119
# Format: cell-based
# Conditions: Min-6/hGPR119 cells, 45 min at room temperature
# In short: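 cAMP accumulation quantified by AlphaScreen after 45 min compound stimulation at about 20 °C. Stimulation buffer: pH 7.4 HEPES saline with 0.5 mM IBMX, 0.1% BSA, 1% DMSO final. Cells: MIN6 stably transfected with human GPR119, 10000/well, cultured 24 h beforehand.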
row,EC50 [nM],SMILES
1,98,"CC(C)(C)OC(=O)N1CCC(N(C(=O)c2cnc(-c3ccc(CO)cc3)nc2)C2CC2)CC1 [Example 81, 4-{Cyclopropyl-[2-(4-hydroxymethyl-phenyl)-pyrimidine-5-carbonyl]-amino}-piperidine-1-carboxylic acid tert-butyl ester]"
2,65,"COc1ncc(-c2ncc(C(=O)N(C3CC3)C3CCN(C(=O)OC(C)(C)C)CC3)cn2)cn1 [Example 82, 4-[Cyclopropyl-(2′-methoxy-[2,5′]bipyrimidinyl-5-carbonyl)-amino]-piperidine-1-carboxylic acid tert-butyl ester]"
3,15,"CC(C)(C)OC(=O)N1CCC(N(C(=O)c2cnc(-c3ccc(C#N)nc3)nc2)C2CC2)CC1 [Example 83, 4-{[2-(6-Cyano-pyridin-3-yl)-pyrimidine-5-carbonyl]-cyclopropyl-amino}-piperidine-1-carboxylic acid tert-butyl ester]"
4,140,"CC(C)(C)OC(=O)N1CCC(N(C(=O)c2cnc(-c3ccc(N4CCOCC4)cc3)nc2)C2CC2)CC1 [Example 84, 4-{Cyclopropyl-[2-(4-morpholin-4-yl-phenyl)-pyrimidine-5-carbonyl]-amino}-piperidine-1-carboxylic acid tert-butyl ester]"
5,46,"COc1cc(-c2ncc(C(=O)N(C3CC3)C3CCN(C(=O)OC(C)(C)C)CC3)cn2)ccn1 [Example 85, 4-{Cyclopropyl-[2-(2-methoxy-pyridin-4-yl)-pyrimidine-5-carbonyl]-amino}-piperidine-1-carboxylic acid tert-butyl ester]"
6,171,"CCNC(=O)c1ccc(-c2ncc(C(=O)N(C3CC3)C3CCN(C(=O)OC(C)(C)C)CC3)cn2)cc1 [Example 86, 4-{Cyclopropyl-[2-(4-ethylcarbamoyl-phenyl)-pyrimidine-5-carbonyl]-amino}-piperidine-1-carboxylic acid tert-butyl ester]"
7,443,"CC(=O)NCc1ccc(-c2ncc(C(=O)N(C3CC3)C3CCN(C(=O)OC(C)(C)C)CC3)cn2)cc1 [Example 87, 4-({2-[4-(Acetylamino-methyl)-phenyl]-pyrimidine-5-carbonyl}-cyclopropyl-amino)-piperidine-1-carboxylic acid tert-buyl ester]"
8,349,"CC(C)(C)OC(=O)N1CCC(N(C(=O)c2cnc(-c3ccc(S(N)(=O)=O)cc3)nc2)C2CC2)CC1 [Example 88, 4-{Cyclopropyl-[2-(4-sulfamoyl-phenyl)-pyrimidine-5-carbonyl]-amino}-piperidine-1-carboxylic acid tert-butyl ester]"
9,240,"Cc1ccc(-c2ncc(C(=O)N(C3CC3)C3CCN(C(=O)OC(C)(C)C)CC3)cn2)cn1 [Example 89, 4-{Cyclopropyl-[2-(6-methyl-pyridin-3-yl)-pyrimidine-5-carbonyl]-amino}-piperidine-1-carboxylic acid tert-butyl ester]"
10,8,"CC(C)(C)OC(=O)N1CCC(N(C(=O)c2cnc(-c3ccc(C#N)c(F)c3)nc2)C2CC2)CC1 [Example 90, 4-{[2-(4-Cyano-3-fluoro-phenyl)-pyrimidine-5-carbonyl]-cyclopropyl-amino}-piperidine-1-carboxylic acid tert-butyl ester]"
11,151,"CNS(=O)(=O)c1ccc(-c2ncc(C(=O)N(C3CC3)C3CCN(C(=O)OC(C)(C)C)CC3)cn2)cc1 [Example 92, 4-{Cyclopropyl-[2-(4-methanesulfamoyl-phenyl)-pyrimidine-5-carbonyl]-amino}-piperidine-1-carboxylic acid tert-butyl ester]"
12,209,"CN(C)c1ccc(-c2ncc(C(=O)N(C3CC3)C3CCN(C(=O)OC(C)(C)C)CC3)cn2)cn1 [Example 93, 4-{Cyclopropyl-[2-(6-dimethylamino-pyridin-3-yl)-pyrimidine-5-carbonyl]-amino}-piperidine-1-carboxylic acid tert-butyl ester]"
13,349,"CC(C)(C)OC(=O)N1CCC(N(C(=O)c2cnc(-n3cnc(CO)c3)nc2)C2CC2)CC1 [Example 94, 4-{Cyclopropyl-[2-(4-hydroxymethyl-imidazol-1-yl)-pyrimidine-5-carbonyl]-amino}-piperidine-1-carboxylic acid tert-butyl ester]"
14,229,"Cc1cnn(-c2ncc(C(=O)N(C3CC3)C3CCN(C(=O)OC(C)(C)C)CC3)cn2)c1 [Example 95, 4-{Cyclopropyl-[2-(4-methyl-pyrazol-1-yl)-pyrimidine-5-carbonyl]-amino}-piperidine-1-carboxylic acid tert-butyl ester]"
15,192,"Cc1ccn(-c2ncc(C(=O)N(C3CC3)C3CCN(C(=O)OC(C)(C)C)CC3)cn2)n1 [Example 96, 4-{Cyclopropyl-[2-(3-methyl-pyrazol-1-yl)-pyrimidine-5-carbonyl]-amino}-piperidine-1-carboxylic acid tert-butyl ester]"
16,59,"CCc1nccn1-c1ncc(C(=O)N(C2CC2)C2CCN(C(=O)OC(C)(C)C)CC2)cn1 [Example 97, 4-{Cyclopropyl-[2-(2-ethyl-imidazol-1-yl)-pyrimidine-5-carbonyl]-amino}-piperidine-1-carboxylic acid tert-butyl ester]"
17,71,"Cc1cn(-c2ncc(C(=O)N(C3CC3)C3CCN(C(=O)OC(C)(C)C)CC3)cn2)c(C)n1 [Example 98, 4-{Cyclopropyl-[2-(2,4-dimethyl-imidazol-1-yl)-pyrimidine-5-carbonyl]-amino}-piperidine-1-carboxylic acid tert-butyl ester]"
18,37,"Cc1nccn1-c1ncc(C(=O)N(C2CC2)C2CCN(C(=O)OC(C)(C)C)CC2)cn1 [Example 99, 4-{Cyclopropyl-[2-(2-methyl-imidazol-1-yl)-pyimidine-5-carbonyl]-amino}-piperidine-1-carboxylic acid tert-butyl ester]"
19,810,"CC(C)(C)OC(=O)N1CCC(N(C(=O)c2cnc(-n3cnnc3)nc2)C2CC2)CC1 [Example 100, 4-[Cyclopropyl-(2-[1,2,4]triazol-4-yl-pyrimidine-5-carbonyl)-amino]-piperidine-1-carboxylic acid tert-butyl ester]"
20,441,"CC(C)(CO)CNC(=O)c1ccc(-c2ncc(C(=O)N(C3CC3)C3CCN(C(=O)OC(C)(C)C)CC3)cn2)c(F)c1 [Example 101, 4-(Cyclopropyl-{2-[2-fluoro-4-(3-hydroxy-2,2-dimethyl-propylcarbamoyl)-phenyl]-pyrimidine-5-carbonyl}-amino)-piperidine-1-carboxylic acid tert-butyl ester]"
21,109,"CCOCCNC(=O)c1ccc(-c2ncc(C(=O)N(C3CC3)C3CCN(C(=O)OC(C)(C)C)CC3)cn2)cc1F [Example 102, 4-(Cyclopropyl-{2-[4-(2-ethoxy-ethylcarbamoyl)-3-fluoro-phenyl]-pyrimidine-5-carbonyl}-amino)-piperidine-1-carboxylic acid tert-butyl ester]"
22,168,"CC(C)(C)OC(=O)N1CCC(N(C(=O)c2cnc(-c3ccc(C(=O)NC4CCCOC4)c(F)c3)nc2)C2CC2)CC1 (stereo not shown) [Example 103, 4-(Cyclopropyl-{2-[3-fluoro-4-(tetrahydro-pyran-3-ylcarbamoyl)-phenyl]-pyrimidine-5-carbonyl}-amino)-piperidine-1-carboxylic acid tert-butyl ester]"
